We go through 18 compounds from patent US4219550A, “Cis- and trans- octahydropyridopyrrolobenzheterocycles” (E. I. Du Pont de Nemours and Company, priority 1978, dated 1980).

Structures can show the parent of a compound that is named as a salt. Where two headings read alike, the source gives them in different places. Bounds are passed on as bounds.

Assay [1] concerns tetrabenazine-induced sedation and depression. Nature of the assay: Mouse tetrabenazine (TBZ) antagonism (ptosis and exploratory activity). In kind it is in vivo, Carworth CF1 S female mice. As for the experimental part: This mouse test is predictive of human antidepressant response (Everett, "The Dopa Response Potentiation Test and Its Use in Screening for Antidepressant Drugs", pp 164 in "Antidepressant Drugs" [Proceedings of the First International Symposium], S. Garattini and M. N. G. Dukes, eds., 1967).
Groups of 10 Carworth CF1 S female mice, 18-21 g each, were fasted 1.5 hours and were intubated with antagonist compounds at oral doses of 0, 0.33, 1, 3, 9, 27 and 81 mg/kg in 0.20 ml of 1% Methocel®. The mice were challenged 30 minutes later with tetrabenazine (as the methane-sulfonate), 32 mg/kg intraperitoneally (dissolved in 0.20 ml 0.05 M KCl at pH 2.0). One hour after antagonist (30 minutes after tetrabenazine), the mice were examined for signs of exploratory activity and ptosis (eyelid closure). Normal exploratory activity (relief from sedation) was recorded when a mouse lifted by the tail from a group of 10 in a testing box and placed on a stainless steel testing box lid (12.5"×8" with 0.33" mesh) either turned its head horizontally 30° in both directions or moved to the edge of the screen within 10 seconds after being placed on the screen. Relief from ptosis was recorded when exactly two seconds after placing the mouse facing the observer, lid closure was less than 50% in both eyes.

Assay [2] deals with conditioned avoidance response. Nature of the assay: Rat conditioned avoidance response (CAR). The assay is classed as in vivo, male Holtzman rats. As to the method: The tranquilizing activity of the compounds of this invention is evidenced by tests conducted in male white rats in which a conditioned avoidance response is interrupted following an oral dose of the drug. This test is predictive of human response to an antipsychotic (tranquilizing) drug. The method of Clark was used (Clark, R., Psychon. Sci. 6, 11, 1966).
The test animals, male Holtzman rats between 90 and 115 grams, were food deprived 18 hours prior to avoidance training. Test drugs were suspended in 0.5% Methocel.
The equipment consisted of a plexiglas pit 5"×5"×9" fitted with a metal floor grid which can be electrified via the output of a shock generator. The top end of the pit opened into a surrounding platform 12"×3-1/2" on all four sides. This pit fitted into a larger plexiglas housing which served both to support the pit and to distribute wires to (a) the electrified floor grid, (b) a sound speaker used for stimulus presentation and (c) a 40 watt incandescent bulb also used for stimulus presentation. The main housing was separate from but attached to a metal frame which supported a noise generator, shock generator, and timing/sequence device. The noise generator was a Grason-Stadler Model 1724, used in the 50 KHz bandwidth with output of -10DB. The two-line shock generator supplied a constant A/C current of 0.19 milliamperes, via constantly scrambled 10 HZ square wave output.
The rats were trained by giving each of them four successive trials 15 to 20 minutes apart with a conditioned stimulus (CS) of a 40-watt incandescent bulb and a white noise plus an unconditioned stimulus (US) of a 0.19 milliampere scrambled shock. Following the four CS+US trials each animal was given an avoidance learning criterion trial in which the CS was presented alone 10 seconds prior to the US.
Rats were dosed orally with compound of the invention or standard drug, 20 rats/dose. Each rat was tested at 60, 120 and 240 minutes after drug.

The subject of assay [3] is tetrabenazine-induced sedation and depression. Nature of the assay: Mouse tetrabenazine (TBZ) antagonism (ptosis and exploratory activity). In kind it is in vivo, Carworth CF1 S female mice. To be noted: 30 mg/kg, footnote mark stands under PTOSIS.
Setting [4] is: po, 1 h, read-out: ED50 TBZ ANTAG. EXPLOR.
Setting [5] is: po, 1 h, read-out: ED50 TBZ ANTAG. PTOSIS.

As to `c1cc2c3c(c1)[C@@H]1CNCC[C@@H]1N3CCCO2` (relative stereo) [Example 4], the ED50 amounted to 47 mg/kg in assay [1] (setting [4]); 1.6 mg/kg in assay [1] (setting [5]); 2.2 mg/kg in assay [2] (po, read-out: ED50 CAR AVOID.); 14 mg/kg in assay [2] (po, read-out: ED50 CAR ESCAPE).
For the compound `CN1CC[C@H]2[C@@H](C1)c1cccc3c1N2CCS3` (relative stereo) [Example 6], the ED50 is > 81 mg/kg in assay [1] (setting [4]); 7.2 mg/kg in assay [1] (setting [5]); 17 mg/kg in assay [2] (po, read-out: ED50 CAR AVOID.).
As for `c1cc2c3c(c1)[C@@H]1CNCC[C@@H]1N3CCO2` (relative stereo) [Example 1, (+)-cis-1,2,6b,7,8,9,10,10a-Octahydropyrido[3', 4': 4,5]pyrrolo[1,2,3,-de][1,4]benzoxazine], the ED50 in assay [1] (setting [4]) is 23 mg/kg; in assay [1] (setting [5]) it was 1.4 mg/kg; in assay [2] (po, read-out: ED50 CAR AVOID.), 2.2 mg/kg; in assay [2] (po, read-out: ED50 CAR ESCAPE), > 25 mg/kg.
Regarding `CCCCN1CC[C@H]2[C@@H](C1)c1cccc3c1N2CCS3` (relative stereo) [CH2, S, n-C4H9, H, cis], the ED50 in assay [1] (setting [4]) came to 14 mg/kg; in assay [1] (setting [5]), 11 mg/kg; in assay [2] (po, read-out: ED50 CAR AVOID.) it was 5.5 mg/kg.
As for `CN(C)CCC=C1c2ccccc2CCc2ccccc21` [Amitriptyline · HCl, Amitriptyline, reference compound], the median effective dose (ED50) is 4.3 mg/kg in assay [1] (oral antagonist, tetrabenazine 32 mg/kg i.p. 30 min later, examined 1 h after antagonist, exploratory activity (relief from sedation), read-out: ED50 TBZ ANTAG. EXPLOR.); 1.6 mg/kg in assay [1] (oral antagonist, tetrabenazine 32 mg/kg i.p. 30 min later, examined 1 h after antagonist, relief from ptosis, read-out: ED50 TBZ ANTAG. PTOSIS); 116 mg/kg in assay [2] (oral, 20 rats/dose, tested at 60, 120 and 240 min, avoidance, read-out: ED50 CAR AVOID.).
Turning to `CN(C)CCCN1c2ccccc2Sc2ccc(Cl)cc21` [Chlorpromazine · HCl, Chlorpromazine, reference compound], the ED50 is > 81 mg/kg in assay [1] (setting [4]); > 81 mg/kg in assay [1] (setting [5]); 5.4 mg/kg in assay [2] (po, read-out: ED50 CAR AVOID.); ~34 mg/kg in assay [2] (po, read-out: ED50 CAR ESCAPE).
With `c1cc2c3c(c1)[C@@H]1CN(C4CC4)CC[C@@H]1N3CCCS2` (relative stereo) [Example 9], the ED50 in assay [1] (setting [4]) and in assay [1] (setting [5]) was 68 mg/kg in each case.
For `CC1CN2c3c(cccc3[C@@H]3CNCC[C@@H]32)S1` (stereo partly drawn) [Example 10], the ED50 in assay [1] (setting [4]) was 27 mg/kg; in assay [1] (setting [5]), 23 mg/kg; in assay [2] (po, read-out: ED50 CAR AVOID.), 8.5 mg/kg; in assay [2] (po, read-out: ED50 CAR ESCAPE), ~38 mg/kg.
Turning to `CN1CC[C@H]2[C@H](C1)c1cccc3c1N2CCS3` (relative stereo) [Example 18], the ED50 in assay [1] (setting [4]) came out at 6.5 mg/kg; in assay [1] (setting [5]) it was 6.5 mg/kg; in assay [2] (po, read-out: ED50 CAR AVOID.), 28 mg/kg.
Turning to `Clc1ccc2c3c1[C@@H]1CNCC[C@@H]1N3CCO2` (relative stereo) [Example 2], the ED50 was 27 mg/kg in assay [1] (setting [4]); 4.3 mg/kg in assay [1] (setting [5]); ~23 mg/kg in assay [2] (po, read-out: ED50 CAR AVOID.); > 50 mg/kg in assay [2] (po, read-out: ED50 CAR ESCAPE).
In the case of `c1cc2c3c(c1)[C@@H]1CNCC[C@@H]1N3CCCS2` (relative stereo) [Example 8a], the ED50 turned out to be 54 mg/kg in assay [1] (setting [4]); 6.6 mg/kg in assay [1] (setting [5]); 2.2 mg/kg in assay [2] (po, read-out: ED50 CAR AVOID.).
On to `c1cc2c3c(c1)[C@@H]1CN(C4CC4)CC[C@@H]1N3CCO2` (relative stereo) [Example 3], for which the ED50 in assay [1] (setting [4]) is 24 mg/kg; in assay [1] (setting [5]), 21 mg/kg; in assay [2] (po, read-out: ED50 CAR AVOID.), 28 mg/kg.
For `c1cc2c3c(c1)[C@@H]1CNCC[C@@H]1N3CCCS2` (relative stereo) [Example 8], in assay [3], the “TBZ ANTAG. activity, subcutaneous (footnote *)” value is given as “active subcutaneously at 30 mg/kg”.
Consider `CCN1CC[C@@H]2[C@@H](C1)c1cccc3c1N2CCS3` [Example 16, (+)-trans-8-Ethyl-1,2,6b, 7,8,9,10,10a-octahydropyrido[3',4':4,5]pyrrolo[1,2,3-de][1,4]benzothiazine], for which the ED50 in assay [1] (setting [4]) was 10.8 mg/kg; in assay [1] (setting [5]), 7.5 mg/kg; in assay [2] (po, read-out: ED50 CAR AVOID.), 6.2 mg/kg.
In the case of `c1cc2c3c(c1)[C@H]1CN(C4CC4)CC[C@@H]1N3CCO2` (relative stereo) [Example 17], the ED50 worked out at 11.2 mg/kg in assay [1] (setting [4]) and 7.5 mg/kg in assay [1] (setting [5]).
As to `CC(C)N1CC[C@H]2[C@@H](C1)c1cccc3c1N2CCS3` (relative stereo) [Example 11], the ED50 worked out at 14 mg/kg in assay [1] (setting [4]); 11 mg/kg in assay [1] (setting [5]); 5.5 mg/kg in assay [2] (po, read-out: ED50 CAR AVOID.).
The matching figures for `c1cc2c3c(c1)[C@@H]1CNCC[C@@H]1N3CCS2` (relative stereo) [Example 5]: 0.4 mg/kg, 3.3 mg/kg and 1.1 mg/kg.
With `c1cc2c3c(c1)[C@@H]1CN(C4CC4)CC[C@@H]1N3CCS2` (relative stereo) [Example 7], the ED50 in assay [1] (setting [4]) stood at 3.3 mg/kg; in assay [1] (setting [5]) it was 1.1 mg/kg.
